According to ChEMBL document CHEMBL5715260, “Selectivity Literature for EUbOPEN Chemogenomic Library” (2024):

Experiments:
[1] = target: T1, Retinoic acid receptor RXR-alpha (Homo sapiens) (UniProt P19793); test: Selectivity interaction (Reporter gene assay) EUB0001151a RXRA; design: recommended concentration 1 uM; conditions: reference bexarotene 1 uM, Selectivity number of off-targets 0.0, Selectivity number of targets 1.0, Source Knowledge inhouse
T1 sequence (whole entry): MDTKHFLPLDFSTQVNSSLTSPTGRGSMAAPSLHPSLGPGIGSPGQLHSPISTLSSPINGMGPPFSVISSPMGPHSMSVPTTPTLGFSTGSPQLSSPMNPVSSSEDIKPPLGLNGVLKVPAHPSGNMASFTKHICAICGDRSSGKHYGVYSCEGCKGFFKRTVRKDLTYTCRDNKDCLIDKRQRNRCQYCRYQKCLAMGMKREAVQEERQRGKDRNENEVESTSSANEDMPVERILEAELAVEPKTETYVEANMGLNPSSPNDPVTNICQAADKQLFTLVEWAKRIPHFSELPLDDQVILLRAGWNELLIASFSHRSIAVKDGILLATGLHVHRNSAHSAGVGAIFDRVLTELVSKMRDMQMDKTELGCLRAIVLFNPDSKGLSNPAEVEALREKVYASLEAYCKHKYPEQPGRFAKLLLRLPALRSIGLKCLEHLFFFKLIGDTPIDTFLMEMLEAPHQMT

[2] = target: T2, Peroxisome proliferator-activated receptor gamma (Homo sapiens) (UniProt P37231); test: Selectivity interaction (Reporter gene assay) EUB0001151a PPARG; design: recommended concentration 1 uM; conditions: screened at recom. conc., Selectivity number of off-targets 1.0, Selectivity number of targets 19.0, Source Knowledge inhouse
T2 sequence (whole entry): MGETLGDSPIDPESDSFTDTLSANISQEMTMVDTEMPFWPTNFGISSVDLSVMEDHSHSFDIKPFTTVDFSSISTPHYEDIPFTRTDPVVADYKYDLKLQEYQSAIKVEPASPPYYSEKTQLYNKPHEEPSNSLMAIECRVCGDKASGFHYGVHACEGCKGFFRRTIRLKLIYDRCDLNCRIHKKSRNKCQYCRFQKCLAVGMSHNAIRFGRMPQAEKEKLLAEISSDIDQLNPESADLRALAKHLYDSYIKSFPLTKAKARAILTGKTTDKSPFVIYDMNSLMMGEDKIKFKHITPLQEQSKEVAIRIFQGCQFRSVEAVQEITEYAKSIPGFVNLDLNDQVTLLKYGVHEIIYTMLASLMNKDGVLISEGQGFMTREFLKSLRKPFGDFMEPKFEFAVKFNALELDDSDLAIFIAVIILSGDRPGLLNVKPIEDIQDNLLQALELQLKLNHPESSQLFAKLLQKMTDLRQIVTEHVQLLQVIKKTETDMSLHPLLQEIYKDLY

[3] = target: T3, Nuclear receptor subfamily 2 group C member 1 (Homo sapiens) (UniProt P13056); test: Selectivity interaction (Reporter gene assay) EUB0001151a NR2C1; design: recommended concentration 1 uM
T3 sequence (whole entry): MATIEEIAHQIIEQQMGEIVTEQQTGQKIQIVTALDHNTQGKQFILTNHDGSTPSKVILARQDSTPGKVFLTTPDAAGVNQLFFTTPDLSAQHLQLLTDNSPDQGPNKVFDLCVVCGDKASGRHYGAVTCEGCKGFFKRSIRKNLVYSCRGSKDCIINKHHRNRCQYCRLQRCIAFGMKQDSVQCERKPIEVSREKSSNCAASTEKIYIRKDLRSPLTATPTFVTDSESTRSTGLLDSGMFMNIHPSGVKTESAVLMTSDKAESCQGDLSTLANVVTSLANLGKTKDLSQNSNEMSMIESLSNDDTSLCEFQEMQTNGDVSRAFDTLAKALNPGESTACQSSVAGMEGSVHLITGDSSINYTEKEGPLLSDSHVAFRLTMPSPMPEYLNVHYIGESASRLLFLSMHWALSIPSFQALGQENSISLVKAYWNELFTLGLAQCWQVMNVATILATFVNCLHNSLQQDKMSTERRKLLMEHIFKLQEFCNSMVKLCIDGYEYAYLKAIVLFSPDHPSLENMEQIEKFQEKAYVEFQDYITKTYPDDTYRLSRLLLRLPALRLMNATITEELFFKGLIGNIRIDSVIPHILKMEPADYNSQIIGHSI

[4] = target: Steroidogenic factor 1 (Homo sapiens) (UniProt Q13285); test: Selectivity interaction (Reporter gene assay) EUB0001151a NR5A1; design: recommended concentration 1 uM
Sequence of Steroidogenic factor 1 (Homo sapiens) (Q13285 whole entry): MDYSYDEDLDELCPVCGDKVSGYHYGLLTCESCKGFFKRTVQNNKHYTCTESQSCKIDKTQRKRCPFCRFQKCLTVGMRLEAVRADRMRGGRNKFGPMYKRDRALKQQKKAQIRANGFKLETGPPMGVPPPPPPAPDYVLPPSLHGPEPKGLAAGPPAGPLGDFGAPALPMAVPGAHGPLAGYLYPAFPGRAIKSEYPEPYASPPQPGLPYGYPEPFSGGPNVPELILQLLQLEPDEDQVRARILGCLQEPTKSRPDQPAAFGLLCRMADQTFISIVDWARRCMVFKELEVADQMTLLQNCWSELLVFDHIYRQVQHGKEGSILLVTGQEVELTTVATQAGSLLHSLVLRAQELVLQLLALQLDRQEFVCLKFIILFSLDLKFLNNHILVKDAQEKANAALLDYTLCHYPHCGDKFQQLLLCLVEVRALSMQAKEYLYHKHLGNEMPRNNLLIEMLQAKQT

[5] = target: Nuclear receptor subfamily 2 group E member 1 (Homo sapiens) (UniProt Q9Y466); test: Selectivity interaction (Reporter gene assay) EUB0001151a NR2E1; design: recommended concentration 1 uM
Sequence of Nuclear receptor subfamily 2 group E member 1 (Homo sapiens) (Q9Y466 whole entry): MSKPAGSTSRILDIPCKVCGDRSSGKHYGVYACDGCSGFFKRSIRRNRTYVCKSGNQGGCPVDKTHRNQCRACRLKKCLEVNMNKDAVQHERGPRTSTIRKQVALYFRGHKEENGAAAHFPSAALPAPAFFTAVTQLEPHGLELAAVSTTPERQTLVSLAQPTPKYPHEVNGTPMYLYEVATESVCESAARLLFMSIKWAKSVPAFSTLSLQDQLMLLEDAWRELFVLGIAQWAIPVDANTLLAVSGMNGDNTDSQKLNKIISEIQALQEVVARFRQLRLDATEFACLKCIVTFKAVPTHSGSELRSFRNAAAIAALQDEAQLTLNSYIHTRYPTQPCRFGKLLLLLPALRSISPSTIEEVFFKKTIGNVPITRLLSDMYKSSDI

[6] = target: T4, Alpha trans-inducing protein (Human alphaherpesvirus 1) (UniProt A0A5J6DW59); test: Selectivity interaction (Reporter gene assay) EUB0001151a UL48; design: recommended concentration 1 uM
T4 sequence (A0A5J6DW59 as listed by the source): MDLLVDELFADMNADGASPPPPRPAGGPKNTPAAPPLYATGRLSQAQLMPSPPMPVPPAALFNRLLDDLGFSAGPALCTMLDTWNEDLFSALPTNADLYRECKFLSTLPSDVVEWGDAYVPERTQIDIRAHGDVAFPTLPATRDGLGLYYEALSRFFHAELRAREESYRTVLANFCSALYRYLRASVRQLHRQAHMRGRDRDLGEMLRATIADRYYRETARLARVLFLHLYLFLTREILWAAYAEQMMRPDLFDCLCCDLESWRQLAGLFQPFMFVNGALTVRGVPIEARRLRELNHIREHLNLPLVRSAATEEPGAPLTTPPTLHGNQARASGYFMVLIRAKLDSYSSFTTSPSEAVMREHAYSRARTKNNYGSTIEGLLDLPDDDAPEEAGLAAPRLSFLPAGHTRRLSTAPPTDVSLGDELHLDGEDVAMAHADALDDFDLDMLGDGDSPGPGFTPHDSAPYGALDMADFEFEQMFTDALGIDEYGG

[7] = target: T5, Hepatocyte nuclear factor 4-alpha (Homo sapiens) (UniProt P41235); test: Selectivity interaction (Reporter gene assay) EUB0001151a HNF4A; design: recommended concentration 1 uM
T5 sequence (whole entry): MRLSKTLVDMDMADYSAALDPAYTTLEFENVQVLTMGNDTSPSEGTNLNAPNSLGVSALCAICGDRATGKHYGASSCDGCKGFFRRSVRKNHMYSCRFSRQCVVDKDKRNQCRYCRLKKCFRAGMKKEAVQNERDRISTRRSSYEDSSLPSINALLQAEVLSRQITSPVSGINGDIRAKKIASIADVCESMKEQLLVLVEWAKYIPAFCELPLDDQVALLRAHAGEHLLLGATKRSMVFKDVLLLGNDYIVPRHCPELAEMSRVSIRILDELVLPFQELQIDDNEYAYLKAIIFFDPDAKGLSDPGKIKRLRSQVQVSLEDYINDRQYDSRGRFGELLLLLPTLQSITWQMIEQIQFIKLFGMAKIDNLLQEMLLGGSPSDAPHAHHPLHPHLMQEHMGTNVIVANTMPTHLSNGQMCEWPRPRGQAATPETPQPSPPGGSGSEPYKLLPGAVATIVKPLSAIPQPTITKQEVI

[8] = target: Nuclear receptor subfamily 4immunitygroup A member 1 (Homo sapiens) (UniProt P22736); test: Selectivity interaction (Reporter gene assay) EUB0001151a NR4A1; design: recommended concentration 1 uM
Sequence of Nuclear receptor subfamily 4immunitygroup A member 1 (Homo sapiens) (P22736 whole entry): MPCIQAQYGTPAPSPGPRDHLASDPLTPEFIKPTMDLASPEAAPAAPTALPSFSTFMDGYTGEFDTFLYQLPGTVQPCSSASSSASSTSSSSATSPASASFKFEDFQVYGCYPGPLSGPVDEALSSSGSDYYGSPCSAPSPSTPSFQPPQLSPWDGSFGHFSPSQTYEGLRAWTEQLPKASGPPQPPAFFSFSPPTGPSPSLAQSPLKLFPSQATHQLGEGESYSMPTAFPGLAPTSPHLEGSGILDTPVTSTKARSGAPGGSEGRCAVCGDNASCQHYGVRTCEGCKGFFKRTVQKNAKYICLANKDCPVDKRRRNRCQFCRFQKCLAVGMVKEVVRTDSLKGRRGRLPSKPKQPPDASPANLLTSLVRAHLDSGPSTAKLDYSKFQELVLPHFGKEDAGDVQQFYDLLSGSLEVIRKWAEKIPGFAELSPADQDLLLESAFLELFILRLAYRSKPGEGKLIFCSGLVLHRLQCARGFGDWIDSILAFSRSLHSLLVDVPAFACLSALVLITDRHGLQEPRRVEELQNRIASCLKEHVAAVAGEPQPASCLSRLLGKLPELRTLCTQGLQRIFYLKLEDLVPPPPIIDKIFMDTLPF

[9] = target: T1, Retinoic acid receptor RXR-alpha (Homo sapiens); test: Selectivity interaction (Reporter gene assay) EUB0001147a RXRA; design: recommended concentration 1 uM; conditions: reference bexarotene 1 uM, Selectivity number of off-targets 0.0, Selectivity number of targets 1.0, Source Knowledge inhouse
[10] = target: T4, Alpha trans-inducing protein (Human alphaherpesvirus 1); test: Selectivity interaction (Reporter gene assay) EUB0001147a UL48; design: recommended concentration 1 uM
[11] = target: Nuclear receptor subfamily 2 group E member 1 (Homo sapiens) (UniProt Q9Y466); test: Selectivity interaction (Reporter gene assay) EUB0001147a NR2E1; design: recommended concentration 1 uM
[12] = target: Steroidogenic factor 1 (Homo sapiens) (UniProt Q13285); test: Selectivity interaction (Reporter gene assay) EUB0001147a NR5A1; design: recommended concentration 1 uM
[13] = target: Nuclear receptor subfamily 4immunitygroup A member 1 (Homo sapiens) (UniProt P22736); test: Selectivity interaction (Reporter gene assay) EUB0001147a NR4A1; design: recommended concentration 1 uM
[14] = target: T3, Nuclear receptor subfamily 2 group C member 1 (Homo sapiens); test: Selectivity interaction (Reporter gene assay) EUB0001147a NR2C1; design: recommended concentration 1 uM
[15] = target: T5, Hepatocyte nuclear factor 4-alpha (Homo sapiens); test: Selectivity interaction (Reporter gene assay) EUB0001147a HNF4A; design: recommended concentration 1 uM
[16] = target: Steroidogenic factor 1 (Homo sapiens) (UniProt Q13285); test: Selectivity interaction (Reporter gene assay) EUB0001148a NR5A1; design: recommended concentration 1 uM
[17] = target: T1, Retinoic acid receptor RXR-alpha (Homo sapiens); test: Selectivity interaction (Reporter gene assay) EUB0001148a RXRA; design: recommended concentration 1 uM
[18] = target: T4, Alpha trans-inducing protein (Human alphaherpesvirus 1); test: Selectivity interaction (Reporter gene assay) EUB0001148a UL48; design: recommended concentration 1 uM
[19] = target: T3, Nuclear receptor subfamily 2 group C member 1 (Homo sapiens); test: Selectivity interaction (Reporter gene assay) EUB0001148a NR2C1; design: recommended concentration 1 uM
[20] = target: T5, Hepatocyte nuclear factor 4-alpha (Homo sapiens); test: Selectivity interaction (Reporter gene assay) EUB0001148a HNF4A; design: recommended concentration 1 uM
[21] = target: Nuclear receptor subfamily 4immunitygroup A member 1 (Homo sapiens) (UniProt P22736); test: Selectivity interaction (Reporter gene assay) EUB0001148a NR4A1; design: recommended concentration 1 uM
[22] = target: Nuclear receptor subfamily 2 group E member 1 (Homo sapiens) (UniProt Q9Y466); test: Selectivity interaction (Reporter gene assay) EUB0001148a NR2E1; design: recommended concentration 1 uM
[23] = target: T4, Alpha trans-inducing protein (Human alphaherpesvirus 1); test: Selectivity interaction (Reporter gene assay) EUB0001152a UL48; design: recommended concentration 10 uM
[24] = target: T3, Nuclear receptor subfamily 2 group C member 1 (Homo sapiens); test: Selectivity interaction (Reporter gene assay) EUB0001152a NR2C1; design: recommended concentration 10 uM; conditions: screened at recom. conc., Selectivity number of off-targets 1.0, Selectivity number of targets 5.0, Source Knowledge inhouse
[25] = target: T1, Retinoic acid receptor RXR-alpha (Homo sapiens); test: Selectivity interaction (Reporter gene assay) EUB0001152a RXRA; design: recommended concentration 10 uM
[26] = target: Nuclear receptor subfamily 4immunitygroup A member 1 (Homo sapiens) (UniProt P22736); test: Selectivity interaction (Reporter gene assay) EUB0001152a NR4A1; design: recommended concentration 10 uM
[27] = target: Nuclear receptor subfamily 2 group E member 1 (Homo sapiens) (UniProt Q9Y466); test: Selectivity interaction (Reporter gene assay) EUB0001152a NR2E1; design: recommended concentration 10 uM
[28] = target: Steroidogenic factor 1 (Homo sapiens) (UniProt Q13285); test: Selectivity interaction (Reporter gene assay) EUB0001152a NR5A1; design: recommended concentration 10 uM
[29] = target: T5, Hepatocyte nuclear factor 4-alpha (Homo sapiens); test: Selectivity interaction (Reporter gene assay) EUB0001152a HNF4A; design: recommended concentration 10 uM
[30] = target: Nuclear receptor subfamily 2 group E member 1 (Homo sapiens) (UniProt Q9Y466); test: Selectivity interaction (Reporter gene assay) EUB0001150a NR2E1; design: recommended concentration 10 uM
[31] = target: T4, Alpha trans-inducing protein (Human alphaherpesvirus 1); test: Selectivity interaction (Reporter gene assay) EUB0001150a UL48; design: recommended concentration 10 uM
[32] = target: Steroidogenic factor 1 (Homo sapiens) (UniProt Q13285); test: Selectivity interaction (Reporter gene assay) EUB0001150a NR5A1; design: recommended concentration 10 uM
[33] = target: T5, Hepatocyte nuclear factor 4-alpha (Homo sapiens); test: Selectivity interaction (Reporter gene assay) EUB0001150a HNF4A; design: recommended concentration 10 uM
[34] = target: T3, Nuclear receptor subfamily 2 group C member 1 (Homo sapiens); test: Selectivity interaction (Reporter gene assay) EUB0001150a NR2C1; design: recommended concentration 10 uM
[35] = target: Nuclear receptor subfamily 4immunitygroup A member 1 (Homo sapiens) (UniProt P22736); test: Selectivity interaction (Reporter gene assay) EUB0001150a NR4A1; design: recommended concentration 10 uM
[36] = target: T1, Retinoic acid receptor RXR-alpha (Homo sapiens); test: Selectivity interaction (Reporter gene assay) EUB0001150a RXRA; design: recommended concentration 10 uM; conditions: reference bexarotene 1 uM, Selectivity number of off-targets 0.0, Selectivity number of targets 1.0, Source Knowledge inhouse

O=C(NCCS(=O)(=O)c1ccc(C(F)(F)F)cn1)c1ccc(Cl)cc1 was tested, and the Relative activation [1] was 0.596%, the Remaining activity [2] was 0.832 and the Fold activation [3] was 1.39. It also gave a Remaining activity [4] of 0.9, a Fold activation [5] of 1.11 and a P-value [6] of 0.0023. For the same molecule, the Fold activation [7] was 1.25 and the Fold activation [8] was 1.27.

In the case of CSc1ccc(C(=O)/C=C/c2cc(C)c(OC(C)(C)C(=O)O)c(C)c2)cc1, the Relative activation [9] is reported as 0.86%, the P-value [10] is reported as 6.06e-07 and the Fold activation [11] is reported as 1.11. For the same molecule, the Remaining activity [12] was 0.871, the Fold activation [13] was 1.25 and the Fold activation [14] was 1.41. The Remaining activity [15] was 0.852.

Work on Cc1cc(SCc2sc(-c3ccc(C(F)(F)F)cc3)nc2C)ccc1OCC(=O)O yielded a Fold activation [16] of 1.05, a Relative activation [17] of 0.766% and a P-value [18] of 0.0001. It also gave a Fold activation [19] of 1.24, a Fold activation [20] of 1.1 and a Fold activation [21] of 1.02. For the same molecule, the Fold activation [22] was 1.05.

With CCOC(=O)N1CCC(CN(Cc2ccc(Cl)cc2)Cc2ccc([N+](=O)[O-])s2)C1 (stereo unspecified) the P-value [23] was 0.0179, the Remaining activity [24] was 0.46 and the Relative activation [25] was 0.237%. The Fold activation [26] was 1.3, the Remaining activity [27] was 0.62 and the Remaining activity [28] was 0.905. The Remaining activity [29] was 0.579.

With COC(=O)c1sccc1S(=O)(=O)Nc1ccc(Nc2ccccc2)cc1OC the Remaining activity [30] was 0.608, the P-value [31] was 0.0012 and the Remaining activity [32] was 0.63. The Remaining activity [33] was 0.51, the Remaining activity [34] was 0.679 and the Remaining activity [35] was 0.906. It also gave a Relative activation [36] of 0.476%.
